Source: PubChem BioAssay AID624436 (The Scripps Research Institute Molecular Screening Center, 2012)
Calls of active or inactive are those of the source.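 The calls were made as follows: active = no compound was called active, only the inactive limit is stated; inactive = inhibition below 30% at 50 µM.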

target: Serine/threonine-protein phosphatase PP1-alpha catalytic subunit (Homo sapiens) (UniProt P62136); assay: PP1alpha phosphatase inhibition, late-stage follow-up, selectivity assay for PP5 inhibitor project, biochemical, OMFP substrate, fluorescence, powder samples, round 5 (AID 624436); details: purified PP1alpha, OMFP dephosphorylation fluorescence; at 50 µM; active compounds read high
Sequence (P62136 whole entry, looked up): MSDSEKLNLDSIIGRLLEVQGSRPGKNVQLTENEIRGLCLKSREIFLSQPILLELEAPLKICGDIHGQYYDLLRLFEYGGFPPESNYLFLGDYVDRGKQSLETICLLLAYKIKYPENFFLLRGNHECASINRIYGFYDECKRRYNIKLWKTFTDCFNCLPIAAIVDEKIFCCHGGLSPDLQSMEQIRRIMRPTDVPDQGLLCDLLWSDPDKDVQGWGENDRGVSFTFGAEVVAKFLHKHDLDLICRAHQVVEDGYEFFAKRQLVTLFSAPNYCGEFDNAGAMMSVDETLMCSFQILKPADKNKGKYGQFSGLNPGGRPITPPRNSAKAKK

inhibition	SMILES
3.75% (inactive)	CC(C)c1ccccc1-c1n[nH]nc1C(=O)O
9.97% (inactive)	CC(C)Oc1ccccc1-c1n[nH]nc1C(=O)O
0.415% (inactive)	O=C(O)c1n[nH]nc1-c1ccccc1-c1ccccc1
1.43% (inactive)	O=C(O)c1n[nH]nc1-c1cccnc1
6.84% (inactive)	Cc1cccc(C)c1-c1n[nH]nc1C(=O)O
4.43% (inactive)	O=C(O)c1[nH]ccc1-c1ccccc1
10.4% (inactive)	Cc1ccccc1-c1n[nH]nc1C(=O)O
7% (inactive)	O=C(O)c1n[nH]nc1-c1ccccc1C(F)(F)F
2.41% (inactive)	CCc1ccccc1-c1n[nH]nc1C(=O)O
15.5% (inactive)	CCOc1ccccc1-c1n[nH]nc1C(=O)O
8.42% (inactive)	O=C(O)c1n[nH]nc1-c1ccccn1
